Test results: patent US7553966B2, “Glucocorticoid mimetics, methods of making them, pharmaceutical compositions, and uses thereof” (Boehringer Ingelheim Pharmaceuticals, Inc., priority 2002, dated 2009)

Assays:
glucocorticoid receptor = test: Glucocorticoid Receptor Cell Assays (agonist activity in one or more of the above assays); type: cell-based; conditions: qualitative statement; assay not specified
[1] = target: T1, human glucocorticoid receptor (GR) complex (Homo sapiens, UniProt P04150); test: Glucocorticoid Receptor Competitive Binding Assay (fluorescence polarization, TAMRA-labeled dexamethasone probe); conditions: qualitative statement; competition with TAMRA-labeled dexamethasone
T1 construct: made in house; host or cells: insect expression system (baculovirus lysate)
T1 sequence (P04150 1-777): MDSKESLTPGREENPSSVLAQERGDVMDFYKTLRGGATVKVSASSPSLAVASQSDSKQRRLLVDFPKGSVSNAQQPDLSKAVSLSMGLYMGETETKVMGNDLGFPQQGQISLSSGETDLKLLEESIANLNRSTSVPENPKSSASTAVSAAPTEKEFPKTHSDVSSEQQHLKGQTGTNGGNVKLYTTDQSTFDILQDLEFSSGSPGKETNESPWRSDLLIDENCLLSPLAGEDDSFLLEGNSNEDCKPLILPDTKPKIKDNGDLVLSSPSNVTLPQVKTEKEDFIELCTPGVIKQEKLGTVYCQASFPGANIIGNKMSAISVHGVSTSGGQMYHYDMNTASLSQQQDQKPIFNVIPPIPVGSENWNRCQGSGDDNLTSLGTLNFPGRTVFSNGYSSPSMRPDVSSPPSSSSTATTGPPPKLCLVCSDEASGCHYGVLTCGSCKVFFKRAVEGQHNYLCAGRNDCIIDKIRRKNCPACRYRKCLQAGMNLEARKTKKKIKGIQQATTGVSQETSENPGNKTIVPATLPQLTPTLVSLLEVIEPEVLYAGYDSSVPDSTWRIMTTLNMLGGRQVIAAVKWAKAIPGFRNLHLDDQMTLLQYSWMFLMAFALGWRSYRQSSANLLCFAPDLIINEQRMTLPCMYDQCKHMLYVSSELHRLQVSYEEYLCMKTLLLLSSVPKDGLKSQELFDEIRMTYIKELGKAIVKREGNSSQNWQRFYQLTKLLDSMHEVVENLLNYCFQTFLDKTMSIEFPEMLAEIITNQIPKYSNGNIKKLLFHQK
Summary of the method: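 Competition with TAMRA-dexamethasone for a human GR complex expressed in insect cells, read by fluorescence polarization. Buffer was 10 mM TES, 50 mM KCl, 20 mM Na2MoO4, 1.5 mM EDTA, 0.04% CHAPS, 10% glycerol, 1 mM DTT, pH 7.4.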

| activity in the GR binding assay [1] | SMILES | activity as agonists of the glucocorticoid receptor function in one or more of the above assays (glucocorticoid receptor) |
| --- | --- | --- |
| potent activity | Cc1cc(C#N)cc2[nH]c(CC(O)(CC(C)(C)c3cccc4c3OCC4)C(F)(F)F)cc12 (centres unmarked) [2-[4-(2,3-Dihydrobenzofuran-7-yl)-2-hydroxy-4-methyl-2-trifluoromethylpentyl]-4-methyl-1H-indole-6-carbonitrile] | potent agonists |
| potent activity | COc1cccc(C(C)(C)CC(O)(Cc2cc3c(C)cc(C#N)cc3[nH]2)C(F)(F)F)c1 (centres unmarked) [2-[2-Hydroxy-4-(3-methoxyphenyl)-4-methyl-2-trifluoromethylpentyl]-4-methyl-1H-indole-6-carbonitrile] | potent agonists |
| potent activity | CC(C)(CC(O)(Cc1ccnc2ccccc12)C(F)(F)F)c1cccc2c1OCC2 (centres unmarked) [4-(2,3-Dihydrobenzofuran-7-yl)-1,1,1-trifluoro-4-methyl-2-quinolin-4-ylmethylpentan-2-ol] | potent agonists |
| potent activity | COc1cc(F)c(Br)cc1C(C)(C)CC(O)(Cc1ccnc2ccccc12)C(F)(F)F (centres unmarked) [4-(5-Bromo-4-fluoro-2-methoxyphenyl)-1,1,1-trifluoro-4-methyl-2-quinolin-4-ylmethylpentan-2-ol] | potent agonists |
| potent activity | Cc1ccc(F)cc1C(C)(C)CC(O)(Cc1cc2ccccc2[nH]1)C(F)(F)F (centres unmarked) [1,1,1-Trifluoro-4-(5-fluoro-2-methylphenyl)-2-(1H-indol-2-ylmethyl)-4-methylpentan-2-ol] | potent agonists |
| potent activity | Cc1cc(C#N)cc2[nH]c(CC(O)(CC(C)(C)c3cccc(F)c3)C(F)(F)F)cc12 (centres unmarked) [2-[4-(3-Fluorophenyl)-2-hydroxy-4-methyl-2-trifluoromethylpentyl]-4-methyl-1H-indole-6-carbonitrile] | potent agonists |
| potent activity | CC(C)(CC(O)(Cc1ccnc2ccccc12)C(F)(F)F)c1cc(Br)cc2c1OCC2 (centres unmarked) [4-(5-Bromo-2,3-dihydrobenzofuran-7-yl)-1,1,1-trifluoro-4-methyl-2-quinolin-4-ylmethylpentan-2-ol] | potent agonists |
| potent activity | CC(C)(CC(O)(Cc1cc2ccccc2[nH]1)C(F)(F)F)c1cccc2c1OCC2 (centres unmarked) [4-(2,3-dihydrobenzofuran-7-yl)-1,1,1-trifluoro-2-(1H-indol-2-ylmethyl)-4-methylpentan-2-ol] | potent agonists |
| potent activity | Cc1cc(C#N)cc2[nH]c(CC(O)(CC(C)(C)c3cc(F)ccc3O)C(F)(F)F)cc12 (centres unmarked) [2-[4-(5-Fluoro-2-hydroxyphenyl)-2-hydroxy-4-methyl-2-trifluoromethylpentyl]-4-methyl-1H-indole-6-carbonitrile] | potent agonists |
| potent activity | COc1ccccc1C(C)(C)CC(O)(Cc1cc2ccccc2[nH]1)C(F)(F)F (centres unmarked) [1,1,1-Trifluoro-2-(1H-indol-2-ylmethyl)-4-(2-methoxyphenyl)-4-methylpentan-2-ol] | potent agonists |
| potent activity | COc1ccccc1C(C)(C)CC(O)(Cc1ccnc2ccccc12)C(F)(F)F (centres unmarked) [1,1,1-Trifluoro-4-(2-methoxyphenyl)-4-methyl-2-quinolin-4-ylmethylpentan-2-ol] | potent agonists |
| potent activity | COc1cc(F)ccc1C(C)(C)CC(O)(Cc1ccnc2ccccc12)C(F)(F)F (centres unmarked) [1,1,1-Trifluoro-4-(4-fluoro-2-methoxyphenyl)-4-methyl-2-quinolin-4-ylmethylpentan-2-ol] | potent agonists |
| potent activity | COc1ccc(F)cc1C(C)(C)CC(O)(Cc1ccnc2cc(F)ccc12)C(F)(F)F (centres unmarked) [1,1,1-Trifluoro-4-(5-fluoro-2-methoxyphenyl)-2-(7-fluoroquinolin-4-ylmethyl)-4-methylpentan-2-ol] | potent agonists |
| potent activity | CC(C)(CC(O)(Cc1ccnc2ccccc12)C(F)(F)F)c1cc(Br)ccc1O (centres unmarked) [4-Bromo-2-(4,4,4-trifluoro-3-hydroxy-1,1-dimethyl-3-quinolin-4-ylmethylbutyl)phenol] | potent agonists |
| potent activity | COc1cc(F)ccc1C(C)(C)CC(O)(Cc1cc2cnccc2[nH]1)C(F)(F)F (centres unmarked) [1,1,1-Trifluoro-4-(4-fluoro-2-methoxyphenyl)-4-methyl-2-(1H-pyrrolo[3,2-c]pyridin-2-ylmethyl)pentan-2-ol] | potent agonists |
| potent activity | Cc1cc2c(c(C(C)(C)CC(O)(Cc3ccnc4ccccc34)C(F)(F)F)c1)OCC2 (centres unmarked) [1,1,1-Trifluoro-4-methyl-4-(5-methyl-2,3-dihydrobenzofuran-7-yl)-2-quinolin-4-ylmethylpentan-2-ol] | potent agonists |
| potent activity | COc1cccc(C(C)(C)CC(O)(Cc2ccnc3ccccc23)C(F)(F)F)c1 (centres unmarked) [1,1,1-Trifluoro-4-(3-methoxyphenyl)-4-methyl-2-quinolin-4-ylmethylpentan-2-ol] | potent agonists |
| potent activity | COc1ccc(F)cc1C(C)(C)CC(O)(Cc1[nH]c2cnccc2c1C)C(F)(F)F (centres unmarked) [1,1,1-Trifluoro-4-(5-fluoro-2-methoxyphenyl)-4-methyl-2-(3-methyl-1H-pyrrolo[2,3-c]pyridin-2-ylmethyl)pentan-2-ol] | potent agonists |
| potent activity | Cc1cccc2[nH]c(CC(O)(CC(C)(C)c3cc(F)ccc3O)C(F)(F)F)cc12 (centres unmarked) [4-Fluoro-2-[4,4,4-trifluoro-3-hydroxy-1,1-dimethyl-3-(4-methyl-1H-indol-2-ylmethyl)butyl]phenol] | potent agonists |
| potent activity | CC(C)(CC(O)(Cc1cc2ccncc2[nH]1)C(F)(F)F)c1ccccc1 (centres unmarked) [1,1,1-Trifluoro-4-methyl-4-phenyl-2-(1H-pyrrolo[2,3-c]pyridin-2-ylmethyl)pentan-2-ol] | potent agonists |
| potent activity | CC(C)(CC(O)(Cc1ccnc2ccccc12)C(F)(F)F)c1ccccc1O (centres unmarked) [2-(4,4,4-Trifluoro-3-hydroxy-1,1-dimethyl-3-quinolin-4-ylmethylbutyl)phenol] | potent agonists |
| potent activity | CC(C)(CC(O)(Cc1cc2cc(C#N)ccc2[nH]1)C(F)(F)F)c1ccc(F)cc1 (centres unmarked) [2-[4-(4-Fluorophenyl)-2-hydroxy-4-methyl-2-trifluoromethylpentyl]-1H-indole-5-carbonitrile] | potent agonists |
| potent activity | CC(C)(CC(O)(Cc1[nH]c2ccccc2c1C#N)C(F)(F)F)c1cc(F)cc2c1OCC2 (centres unmarked) [2-[4-(5-Fluoro-2,3-dihydrobenzofuran-7-yl)-2-hydroxy-4-methyl-2-trifluoromethylpentyl]-1H-indole-3-carbonitrile] | potent agonists |
| potent activity | CC(C)(CC(O)(Cc1ccnc2ccccc12)C(F)(F)F)c1ccc(F)cc1O (centres unmarked) [5-Fluoro-2-(4,4,4-trifluoro-3-hydroxy-1,1-dimethyl-3-quinolin-4-ylmethylbutyl)phenol] | potent agonists |

| SMILES | activity in the GR binding assay [1] | activity as agonists of the glucocorticoid receptor function in one or more of the above assays (glucocorticoid receptor) |
| --- | --- | --- |
| COc1ccc(F)cc1C(C)(C)CC(O)(Cc1cc2ccncc2[nH]1)C1CC1 (centres unmarked) [2-Cyclopropyl-4-(5-fluoro-2-methoxyphenyl)-4-methyl-1-(1H-pyrrolo[2,3-c]pyridin-2-yl)pentan-2-ol] | potent activity | agonists |
